Read-outs that look alike come from different tables or passages of the source.
Legend:
[1] = test system: human pancreatic cancer cell line BxPC3; assay: In vitro activity in human pancreatic cancer cell line BxPC3; type: cell-based; conditions: read-out: EC50 (nM) (±standard deviation)
Procedure: The in vitro activity of compound A was determined in the human pancreatic cancer cell line BxPC3 (normal […] status). EC50 values were determined (in 1% FBS and with 45 mg/mL has), as follows

tumor = assay: Tumor volume following administration of compound A (FIG. 3, FIG. 4); type: in vivo

**Q.** How did the EC50 ([1]; BXPC-3, BxPC3, 1% FBS) turn out when `COc1cc(F)c(F)c(Nc2ccc(I)cc2F)c1NS(=O)(=O)C1(C[C@H](O)CO)CC1` [Compound A, (S)-N-(3,4-difluoro-2-(2-fluoro-4-iodophenylamino)-6-methoxyphenyl)-1-(2,3-dihydroxypropyl)cyclopropane-1-sulfonamide] was run?
**A.** Its EC50 is 15.8 ± 2.4 nM.

**Q.** And the EC50 ([1]; BXPC-3, BxPC3, +45 mg/mL hSA)?
**A.** The EC50 was 207 ± 29 nM.

**Q.** And the “tumor volume as a function of time” value (tumor; FIG. 3)?
**A.** The value was “decrease in tumor volume”.

**Q.** And the “tumor volume as a function of time” value (tumor; FIG. 4)?
**A.** Its value is “decrease in tumor volume”.

From patent US20120053211A1, “TREATMENT OF PANCREATIC CANCER” (ARDEA BIOSCIENCES, INC., priority 2009, published 2012)
